Laboratory results reported in patent publication US8680094B2, “1, 4-benzoxazine compounds and derivatives thereof as therapeutic drugs for the treatment of neurodegenerative conditions” (Board of Regents, The University of Texas System, priority 2008, dated 2014).
Where “and” joins values, the source holds several entries; their conditions need not be identical. Equal values may be shown once.

What was measured:
[1] = system: flies expressing human APP695; experiment: APP695-induced toxicity in Drosophila (survival of flies); type: in vivo
Method: Survival of flies expressing human APP695 compared to controls. […] Bars indicate mean±SEM. FIG. 8 is an image showing HSB-13 protects HT-22 cells against HCA-induced toxicity. HT-22 cells were treated with no additives (Control), 2 mM HCA, or 2 mM HCA+25 μM HSB-13. The appearance of the cultures at 24 hours after treatment is shown.
Expression of human APP695 was induced ubiquitously by crossing transgenic flies carrying a UAS-APP695 construct (Fossgreen et al., 1998) with flies containing an actin-GAL4 promoter using the UAS/GAL4 system (Brand and Perrimon, 1993). Flies were raised at 25° C. in the dark on 10% yeast paste containing different concentrations of HSB-13 (0, 2.5, 5, and 50 μM). The percentage of surviving APP695-expressing progeny was determined by comparing them to control progeny carrying no promoter construct obtained in the same cross and therefore raised under identical conditions as described previously (Greeve et al., 2004).

[2] = system: primary cortical neurons; experiment: Aβ-induced death of primary cortical neurons; type: cell-based, rat; settings: 5 uM aged Aβ25-35; viability 24 hours later
Method: Primary cultures of cortical neurons were cultured from embryonic day 18 rats. The cultures were treated 1-2 days later with 5 uM of aged Aβ peptide (Aβ25-35; purchased from Sigma-Aldrich). Neuronal viability was assayed 24 hours later.

With `Nc1ccc2c(c1)NC(=O)/C(=C/c1cc(Br)c(O)c(Br)c1)O2` [HSB-13, (Z)-6-amino-2-(3,′5′-dibromo-4′-hydrozybenzylidene)-2H-benzo[b][1,4]oxazin-3(4H)-one] the “survival rate compared to untreated flies” value ([1]; food containing HSB-13, all p-values<0.05) was “approximately 10 times”, the “survival rate of APP-expressing flies compared to equally treated control flies” value ([1]; raised on food containing HSB-13, printed as 65% at 50 μM to 44% at 50 μM, untreated about 5%) was 65% and 44% and the “protection against Aβ toxicity” value [2] was “protects”.
